Measured values taken from PubChem BioAssay (NCI).
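Tested at 5 concentrations; 48 h exposure; 96-well plates; endpoints linearly interpolated, else capped at highest concentration. GI50 = concentration required for 50% inhibition of growth. TGI is the concentration that stops growth completely.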

Key:
Assay in all cases: DTP human tumour cell line panel, 48 h
786-0 renal = tested on: 786-0 renal
A498 renal = tested on: A498 renal
A549 NSCLC = tested on: A549 NSCLC
ACHN renal = tested on: ACHN renal
BT-549 breast = tested on: BT-549 breast
CAKI-1 renal = tested on: CAKI-1 renal
CCRF-CEM leukemia = tested on: CCRF-CEM leukemia
COLO 205 colon = tested on: COLO 205 colon
DU-145 prostate = tested on: DU-145 prostate
EKVX NSCLC = tested on: EKVX NSCLC
HCC-2998 colon = tested on: HCC-2998 colon
HCT-116 colon = tested on: HCT-116 colon
HCT-15 colon = tested on: HCT-15 colon
HL-60(TB) leukemia = tested on: HL-60(TB) leukemia
HOP-62 NSCLC = tested on: HOP-62 NSCLC
HOP-92 NSCLC = tested on: HOP-92 NSCLC
HS 578T breast = tested on: HS 578T breast
HT29 colon = tested on: HT29 colon
IGROV1 ovarian = tested on: IGROV1 ovarian
K-562 leukemia = tested on: K-562 leukemia
KM12 colon = tested on: KM12 colon
LOX IMVI melanoma = tested on: LOX IMVI melanoma
M14 melanoma = tested on: M14 melanoma
MALME-3M melanoma = tested on: MALME-3M melanoma
MCF7 breast = tested on: MCF7 breast
MDA-MB-231 breast = tested on: MDA-MB-231 breast
MDA-MB-435 = tested on: MDA-MB-435
MOLT-4 leukemia = tested on: MOLT-4 leukemia
NCI-H226 lung = tested on: NCI-H226 lung
NCI-H23 lung = tested on: NCI-H23 lung
NCI-H460 lung = tested on: NCI-H460 lung
NCI-H522 lung = tested on: NCI-H522 lung
NCI/ADR-RES ovarian = tested on: NCI/ADR-RES ovarian
OVCAR-3 ovarian = tested on: OVCAR-3 ovarian
OVCAR-4 ovarian = tested on: OVCAR-4 ovarian
OVCAR-5 ovarian = tested on: OVCAR-5 ovarian
OVCAR-8 ovarian = tested on: OVCAR-8 ovarian
PC-3 prostate = tested on: PC-3 prostate
RPMI-8226 leukemia = tested on: RPMI-8226 leukemia
RXF 393 renal = tested on: RXF 393 renal
SF-268 CNS = tested on: SF-268 CNS
SF-295 CNS = tested on: SF-295 CNS
SF-539 CNS = tested on: SF-539 CNS
SK-MEL-2 melanoma = tested on: SK-MEL-2 melanoma
SK-MEL-28 melanoma = tested on: SK-MEL-28 melanoma
SK-MEL-5 melanoma = tested on: SK-MEL-5 melanoma
SK-OV-3 ovarian = tested on: SK-OV-3 ovarian
SN12C renal = tested on: SN12C renal
SNB-19 CNS = tested on: SNB-19 CNS
SNB-75 CNS = tested on: SNB-75 CNS
SR leukemia = tested on: SR leukemia
SW-620 colon = tested on: SW-620 colon
T-47D breast = tested on: T-47D breast
TK-10 renal = tested on: TK-10 renal
U251 CNS = tested on: U251 CNS
UACC-257 melanoma = tested on: UACC-257 melanoma
UACC-62 melanoma = tested on: UACC-62 melanoma
UO-31 renal = tested on: UO-31 renal

## CCn1c(-c2nonc2N)nc2c(C#CC(C)(C)O)ncc(OCC3CCNCC3)c21
786-0 renal
  GI50: 6.11 µM
  TGI: 24.6 µM
A498 renal
  GI50: 0.384 µM
  TGI: 12.7 µM
A549 NSCLC
  GI50: 10.7 µM
  TGI: > 25 µM
ACHN renal
  GI50: 8.13 µM
  TGI: > 25 µM
BT-549 breast
  GI50: 11 µM
  TGI: > 25 µM
CAKI-1 renal
  GI50: 17.2 µM
  TGI: > 25 µM
CCRF-CEM leukemia
  GI50: 4.5 µM
  TGI: > 25 µM
COLO 205 colon
  GI50: 4.84 µM
  TGI: 15.2 µM
DU-145 prostate
  GI50: 8.15 µM
  TGI: > 25 µM
EKVX NSCLC
  GI50: > 25 µM
  TGI: > 25 µM
HCC-2998 colon
  GI50: 11.4 µM
  TGI: > 25 µM
HCT-116 colon
  GI50: 6.67 µM
  TGI: > 20.9 µM
HCT-15 colon
  GI50: 16.5 µM
  TGI: > 25 µM
HL-60(TB) leukemia
  GI50: 6.63 µM
  TGI: 17.2 µM
HOP-62 NSCLC
  GI50: 11.5 µM
  TGI: > 25 µM
HOP-92 NSCLC
  GI50: > 25 µM
  TGI: > 25 µM
HS 578T breast
  GI50: 3.83 µM
  TGI: 15.4 µM
HT29 colon
  GI50: 10.4 µM
  TGI: > 25 µM
IGROV1 ovarian
  GI50: 1.34 µM
  TGI: > 25 µM
K-562 leukemia
  GI50: > 25 µM
  TGI: > 25 µM
KM12 colon
  GI50: 7.58 µM
  TGI: > 25 µM
LOX IMVI melanoma
  GI50: 7.04 µM
  TGI: > 25 µM
M14 melanoma
  GI50: 13.4 µM
  TGI: > 25 µM
MALME-3M melanoma
  GI50: > 25 µM
  TGI: > 25 µM
MCF7 breast
  GI50: 6.19 µM
  TGI: > 25 µM
MDA-MB-231 breast
  GI50: > 25 µM
  TGI: > 25 µM
MDA-MB-435
  GI50: 13.7 µM
  TGI: > 25 µM
MOLT-4 leukemia
  GI50: 8.3 µM
  TGI: > 25 µM
NCI-H226 lung
  GI50: > 15.2 µM
  TGI: > 25 µM
NCI-H23 lung
  GI50: > 19.2 µM
  TGI: > 25 µM
NCI-H460 lung
  GI50: 18.2 µM
  TGI: > 25 µM
NCI-H522 lung
  GI50: 9.07 µM
  TGI: > 25 µM
NCI/ADR-RES ovarian
  GI50: 12.8 µM
  TGI: > 25 µM
OVCAR-3 ovarian
  GI50: 7.07 µM
  TGI: > 23.6 µM
OVCAR-4 ovarian
  GI50: > 25 µM
  TGI: > 25 µM
OVCAR-5 ovarian
  GI50: > 25 µM
  TGI: > 25 µM
OVCAR-8 ovarian
  GI50: 9.68 µM
  TGI: > 25 µM
PC-3 prostate
  GI50: 7.48 µM
  TGI: > 25 µM
RPMI-8226 leukemia
  GI50: > 25 µM
  TGI: > 25 µM
RXF 393 renal
  GI50: 2.54 µM
  TGI: 7.28 µM
SF-268 CNS
  GI50: 9.41 µM
  TGI: > 25 µM
SF-295 CNS
  GI50: 5.29 µM
  TGI: > 25 µM
SF-539 CNS
  GI50: 3.36 µM
  TGI: > 20.7 µM
SK-MEL-2 melanoma
  GI50: 11.7 µM
  TGI: > 25 µM
SK-MEL-28 melanoma
  GI50: 10 µM
  TGI: > 25 µM
SK-MEL-5 melanoma
  GI50: 8.87 µM
  TGI: > 21.2 µM
SK-OV-3 ovarian
  GI50: 10.4 µM
  TGI: > 25 µM
SN12C renal
  GI50: 9.17 µM
  TGI: > 25 µM
SNB-19 CNS
  GI50: 10.6 µM
  TGI: > 25 µM
SNB-75 CNS
  GI50: 2.74 µM
  TGI: > 23.3 µM
SR leukemia
  GI50: 8.08 µM
  TGI: 24.4 µM
SW-620 colon
  GI50: 10.1 µM
  TGI: > 25 µM
T-47D breast
  GI50: > 25 µM
  TGI: > 25 µM
TK-10 renal
  GI50: 8.28 µM
  TGI: > 25 µM
U251 CNS
  GI50: 3.99 µM
  TGI: > 25 µM
UACC-257 melanoma
  GI50: > 20.7 µM
  TGI: > 25 µM
UACC-62 melanoma
  GI50: 8.02 µM
  TGI: > 25 µM
UO-31 renal
  GI50: 6.42 µM
  TGI: 18.5 µM
